Where “and” joins values, the source holds several entries; their conditions need not be identical. Equal values may be shown once. Read-outs that look alike come from different tables or passages of the source.
Assays:
[1] = system: L. donovani axenic amastigotes; assay: In vitro anti-leishmania activity (IC50 vs. L. donovani axenic amastigotes); type: cell-based; conditions: Leishmania donovani
Trypanosoma cruzi = assay: Anti-protozoan data: T. cruzi IC50; type: cell-based; conditions: read-out: T. cruzi IC50
[2] = system: Trypanosoma brucei rhodesiense; assay: Anti-protozoan data: T.b.r. IC50; type: cell-based; conditions: read-out: T.b.r. IC50
[3] = system: Mycobacterium tuberculosis; assay: Compounds tested against Mycobacterium tuberculosis (MIC90); type: cell-based
Plasmodium falciparum = assay: Anti-protozoan data: P. falcip. IC50; type: cell-based; conditions: read-out: P. falcip. IC50
Aspergillus fumigatus = assay: Anti-fungal data: Aspergillus fumigatus; type: cell-based; conditions: for MIC: strain DUMC 168.95, read-out: Aspergillus. Fumigatus (DUMC 168.95) MIC100
Candida albicans = assay: Anti-fungal data: Candida albicans; type: cell-based; conditions: for MFC / MIC80: strain A39; for MIC: strain A39, read-out: Candida albicans (A39) MIC100
[4] = axenic amastigotes, Tables I-V, read-out: IC50 vs. L. donovani
[5] = Table VII(b), read-out: M. tb MIC90
[6] = Tables VI(a), VI(c), read-out: Leishmania donovani IC50

| Compound | IC50 [1, 4] [µM] | IC50 ([1]; read-out: L. Donovani IC50) [µM] | IC50 (Trypanosoma cruzi) [µM] | IC50 [2] [µM] | MIC90 [3, 5] | IC50 (Plasmodium falciparum) [µM] | IC50 (in vitro) [µM] | MFC (Aspergillus fumigatus; strain DUMC 168.95) [µg/mL] | MIC80 (Aspergillus fumigatus; strain DUMC 168.95) [µg/mL] | MIC (Aspergillus fumigatus) [µg/mL] | IC50 [1, 6] [µM] | MFC (Candida albicans) [µg/mL] | MIC80 (Candida albicans) [µg/mL] | MIC (Candida albicans) [µg/mL] | IC50 (Trypanosoma cruzi; Tables VI(a), VI(c)) [µM] | IC50 ([2]; Tables VI(a), VI(c)) [µM] | MIC90 ([3]; read-out: M. tb. MIC90) | melting point [°C] | IC50 (Plasmodium falciparum; Tables VI(a), VI(c)) [µM] |
| --- | --- | --- | --- | --- | --- | --- | --- | --- | --- | --- | --- | --- | --- | --- | --- | --- | --- | --- | --- |
| N=C(N)c1cccc(-c2cc3cc(C(=N)N)ccc3o2)c1 [Compound 166, 2-(3-carbamimidoylphenyl)benzofuran-5-carboxamidine] | 5.82 ± 0.06 | 5.82 ± 0.06 | 23.4 | 0.0241 | 11.9 µg/mL and 31.6 µM | 0.0191 | 21.2 | – | – | – | – | – | – | – | – | – | – | – | – |
| c1cc(C2=NCCN2)cc(-c2cc3cc(C4=NCCN4)ccc3o2)c1 [Compound 168, 2-(3-(5-(4,5-dihydro-1H-imidazol-2-yl)benzofuran-2-yl)phenyl)-4,5-dihydro-1H-imidazole] | 23.7 ± 0.17 | 23.7 ± 0.17 | 39.6 | 0.0776 | 10.8 µg/mL and 25.7 µM | 0.0758 | 33.9 | – | – | – | – | – | – | – | – | – | – | – | – |
| Cl.Cl.c1cc(C2=NCCN2)ccc1OCCCCCOc1ccc(-c2cc3cc(C4=NCCN4)ccc3o2)cc1 [Compound 52, 2-(2-(4-(5-(4-(4,5-Dihydro-1H-imidazol-2-yl)phenoxy)pentyloxy)phenyl)benzofuran-5-yl)-4,5-dihydro-1H-imidazole dihydrochloride] | – | – | – | – | – | – | 0.87 | > 100 | 10 | 100 | 39.4 ± 7.35 | 10 | 10 | 10 | 2.27 | 0.338 | 10.1 µg/mL and 16.9 µM | 258 to 261 | 0.06 |
| CC(C)NC(=N)c1cccc(-c2cc3cc(C(=N)NC(C)C)ccc3o2)c1 [Compound 167, 2-(3-(N-isopropylcarbamimidoyl)phenyl)-N-isopropylbenzofuran-5-carboxamidine] | 13.4 ± 0.64 | 13.4 ± 0.64 | > 199 | 0.473 | > 57.8 µg/mL and > 128 µM | 0.331 | > 199 | – | – | – | – | – | – | – | – | – | – | – | – |
| Cl.Cl.c1cc(C2=NCCN2)ccc1OCCCOc1ccc(-c2cc3cc(C4=NCCN4)ccc3o2)cc1 [Compound 46, 2-(2-(4-(3-(4-(4,5-Dihydro-1H-imidazol-2-yl)phenoxy)propoxy)phenyl)benzofuran-5-yl)-4,5-dihydro-1H-imidazole dihydrochloride] | – | – | – | – | – | – | 10.3 | – | 10 | > 100 | – | 10 | 10 | 10 | 7.6 | 0.0606 | – | 262 to 263 | 0.0432 |
| CC(C)NC(=N)c1ccc(OCCCOc2ccc(-c3cc4cc(C(=N)NC(C)C)ccc4o3)cc2)cc1.Cl.Cl [Compound 45, 2-(4-(3-(4-(N-Isopropylcarbamimidoyl)phenoxy)propoxy)phenyl)-N-isopropylbenzofuran-5-carboxamidine dihydrochloride] | – | – | – | – | – | – | 45.6 | – | 100 | > 100 | 1.56 ± 0.58 | 10 | 10 | 10 | 70.4 | 0.0409 | 1.12 µg/mL and 1.86 µM | 301 to 302 | 0.0418 |
| Cl.Cl.c1cc(OCCCOc2ccc(C3=NCCN3)cc2)cc(-c2cc3ccc(C4=NCCN4)cc3o2)c1 [Compound 58, 2-(2-(3-(3-(4-(4,5-Dihydro-1H-imidazol-2-yl)phenoxy)propoxy)phenyl)benzofuran-6-yl)-4,5-dihydro-1H-imidazole dihydrochloride] | 4.73 ± 1.71 | – | – | – | – | – | 10.1 | – | – | – | 4.73 ± 1.71 | – | – | – | 7.32 | 1.08 | – | 208 to 211 | 0.0952 |
| CONC(=N)c1ccc2oc(CCCCCc3cc4cc(C(=N)NOC)ccc4o3)cc2c1 [Compound 193, 2-(5-(5-(N-Methoxycarbamimidoyl)benzofuran-2-yl)pentyl)-N-methoxybenzofuran-5-carboxamidine] | – | – | – | – | – | – | 35.6 | – | – | – | > 100 | – | – | – | 19.1 | > 18.6 | 4.25 µg/mL and 7.88 µM | – | > 1.86 |
| CC(C)NC(=N)c1ccc(OCCCCCOc2cccc(-c3cc4ccc(C(=N)NC(C)C)cc4o3)c2)cc1.Cl.Cl [Compound 63, 2-(3-(5-(4-(N-Isopropylcarbamimidoyl)phenoxy)pentyloxy)phenyl)-N-isopropylbenzofuran-6-carboxamidine dihydrochloride] | 8.92 ± 0.71 | – | – | – | – | – | 20.1 | – | – | – | 8.92 ± 0.71 | – | – | – | 29.7 | 0.911 | – | 253 to 255 | 0.294 |
| Cl.Cl.N=C(N)c1ccc(OCCCOc2cccc(-c3cc4ccc(C(=N)N)cc4o3)c2)cc1 [Compound 56, 2-(3-(3-(4-Carbamimidoylphenoxy)propoxy)phenyl)benzofuran-6-carboxamidine dihydrochloride] | 11.2 ± 0.28 | – | – | – | – | – | 19.8 | – | – | – | 11.2 ± 0.28 | – | – | – | 11.1 | 0.327 | 1.02 µg/mL and 1.93 µM | 196 to 200 | 0.084 |
| Cl.Cl.c1cc(C2=NCCN2)ccc1OCCCCCOc1ccc(-c2cc3ccc(C4=NCCN4)cc3o2)cc1 [Compound 76, 2-(2-(4-(5-(4-(4,5-Dihydro-1H-imidazol-2-yl)phenoxy)pentyloxy)phenyl)benzofuran-6-yl)-4,5-dihydro-1H-imidazole dihydrochloride] | 10.4 ± 0.78 | – | – | – | – | – | 3.2 | – | – | – | 10.4 ± 0.78 | – | – | – | 2.12 | 0.262 | – | 212 to 215 | 0.028 |
| Cl.Cl.c1cc(OCCCCCOc2ccc(C3=NCCN3)cc2)cc(-c2cc3ccc(C4=NCCN4)cc3o2)c1 [Compound 64, 2-(2-(3-(5-(4-(4,5-Dihydro-1H-imidazol-2-yl)phenoxy)pentyloxy)phenyl)benzofuran-6-yl) -4,5-dihydro-1H-imidazole dihydrochloride] | 16.5 ± 3.45 | – | – | – | – | – | 3.7 | – | – | – | 16.5 ± 3.45 | – | – | – | 3.62 | 0.442 | – | 188 to 190 | 0.0469 |
| Cl.Cl.c1cc(C2=NCCN2)ccc1OCCCCCCOc1ccc(-c2cc3ccc(C4=NCCN4)cc3o2)cc1 [Compound 79, 2-(2-(4-(6-(4-(4,5-Dihydro-1H-imidazol-2-yl)phenoxy)hexyloxy)phenyl)benzofuran-6-yl)-4,5-dihydro-1H-imidazole dihydrochloride] | 15.3 ± 1.72 | – | – | – | – | – | 3.44 | – | – | – | 15.3 ± 1.72 | – | – | – | 2.15 | 0.224 | 2.14 µg/mL and 3.51 µM | 265 to 269 | 0.0316 |
| CC(C)NC(=N)c1ccc(OCCCCCCOc2ccc(-c3cc4cc(C(=N)NC(C)C)ccc4o3)cc2)cc1.Cl.Cl [Compound 54, 2-(4-(6-(4-(N-Isopropylcarbamimidoyl)phenoxy)hexyloxy)phenyl)-N-isopropylbenzofuran-5-carboxamidine dihydrochloride] | – | – | – | – | – | – | 0.85 | – | > 100 | > 100 | 5.4 ± 1.46 | – | > 100 | > 100 | 1.21 | 0.211 | 65.8 µg/mL and 102 µM | 288 to 291 | 0.0634 |

— US20080114047A1 (priority 2003, published 2008)
